Measurements published in PubChem BioAssay (NCI).
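These data come from cells grown in 96-well plates and exposed to compound for 48 hours at five concentrations. GI50: concentration for 50% inhibition of growth. TGI marks complete inhibition of growth.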

What was measured:
Assay in all cases: inhibition of tumour cell growth, NCI panel, 48 h
CAKI-1 renal = tested on: CAKI-1 renal
HCT-15 colon = tested on: HCT-15 colon
HOP-92 NSCLC = tested on: HOP-92 NSCLC
K-562 leukemia = tested on: K-562 leukemia
MOLT-4 leukemia = tested on: MOLT-4 leukemia
NCI-H23 lung = tested on: NCI-H23 lung
NCI-H460 lung = tested on: NCI-H460 lung
RXF 393 renal = tested on: RXF 393 renal
SF-268 CNS = tested on: SF-268 CNS
SK-MEL-2 melanoma = tested on: SK-MEL-2 melanoma

| Structure (SMILES) | TGI (CAKI-1 renal) | TGI (HCT-15 colon) | TGI (HOP-92 NSCLC) | TGI (K-562 leukemia) | TGI (MOLT-4 leukemia) | TGI (NCI-H23 lung) | TGI (NCI-H460 lung) | TGI (RXF 393 renal) | TGI (SF-268 CNS) | TGI (SK-MEL-2 melanoma) | GI50 (CAKI-1 renal) | GI50 (HCT-15 colon) | GI50 (K-562 leukemia) | GI50 (MOLT-4 leukemia) | GI50 (NCI-H23 lung) | GI50 (NCI-H460 lung) | GI50 (RXF 393 renal) | GI50 (SF-268 CNS) | GI50 (SK-MEL-2 melanoma) | GI50 (HOP-92 NSCLC) |
| --- | --- | --- | --- | --- | --- | --- | --- | --- | --- | --- | --- | --- | --- | --- | --- | --- | --- | --- | --- | --- |
| NC(=S)NNc1c([N+](=O)[O-])cnn(-c2ccccc2)c1=O | 33.9 µM | 32 µM | 34.8 µM | 15.9 µM | 62.5 µM | 34.4 µM | 34 µM | 33.9 µM | 40.6 µM |  |  |  |  |  |  |  |  |  |  |  |
| O=C1C(c2ccccc2)=[N+]([O-])c2ccccc21 |  | 37.9 µM | 20.7 µM | 8.34 µM | 47.2 µM | 36.6 µM | 32.7 µM |  | 27.4 µM | 28.3 µM |  |  |  |  |  |  |  |  |  |  |
| CCCCN(CCCC)c1c([N+](=O)[O-])c(=O)nc2ccccn12 |  | > 100 µM | > 100 µM | > 100 µM | > 100 µM | > 100 µM | 79.4 µM |  | > 100 µM | > 100 µM |  |  |  |  |  |  |  |  |  |  |
| CCC1=NC(CO)[C@H](c2ccccc2)O1 (some centres undefined) | > 100 µM | > 100 µM | > 100 µM | > 100 µM |  | > 100 µM | > 100 µM | > 100 µM | > 100 µM | > 100 µM |  |  |  |  |  |  |  |  |  |  |
| O=[N+]([O-])c1cnn(C2=CNc3ccccc3N=C2)c1 |  | > 100 µM | > 100 µM |  | > 100 µM | > 100 µM | > 100 µM | > 100 µM | > 100 µM | > 100 µM |  |  |  |  |  |  |  |  |  |  |
| NC(N)=NCCC1OC(=O)C2=C1c1c(O)ccc3nccc(c13)O2 (centres undefined) | > 100 µM | > 100 µM |  | > 100 µM | > 100 µM | > 100 µM | > 100 µM | > 100 µM | > 100 µM | > 100 µM | > 100 µM | > 100 µM | > 100 µM | > 100 µM | > 100 µM | > 100 µM | > 100 µM | 23.8 µM | > 100 µM |  |
| C/C=C/C=C/C=C/C=C/C(=O)O | > 100 µM | > 100 µM |  | > 100 µM | > 100 µM | > 100 µM | > 100 µM | > 100 µM | > 100 µM | > 100 µM |  |  |  |  |  |  |  |  |  |  |
| Cc1cccc(C)c1NC(=O)C1C(=O)N(c2c(C)cccc2C)C(=O)/C1=N\NC(N)=S (centres undefined) |  | > 100 µM | > 100 µM | > 100 µM | > 100 µM | > 100 µM | > 100 µM | > 100 µM | > 100 µM | > 100 µM |  |  |  |  |  |  |  |  |  |  |
| Cc1ccc(-c2cc(-c3ccccc3)c(C#N)c(=O)n2C2OC(CO)C(O)C(O)C2O)cc1 (centres undefined) |  | > 100 µM | > 100 µM | > 100 µM | 85.3 µM | > 100 µM | > 100 µM | > 100 µM | > 100 µM |  |  |  |  |  |  |  |  |  |  |  |
| COC1OC(CO)C(O)C1N (centres undefined) | > 100 µM | > 100 µM | > 100 µM | > 100 µM | > 100 µM | > 100 µM | > 100 µM | > 100 µM | > 100 µM |  |  |  |  |  |  |  |  |  |  |  |
| N.N.N.N.O=C([O-])C(Cl)Cl.O=C([O-])C(Cl)Cl.[Co+3].[O-][Cl+3]([O-])([O-])[O-] |  | > 100 µM | > 100 µM | > 100 µM | > 100 µM | > 100 µM | > 100 µM |  | > 100 µM | > 100 µM |  | > 100 µM | > 100 µM | > 100 µM | > 100 µM | > 100 µM |  | > 100 µM | > 100 µM | > 100 µM |
| COc1ccc(/C=C\c2cc(OC)c(O[Si](C)(C)C(C)(C)C)c(OC)c2)cc1 | > 100 µM |  | > 100 µM | > 100 µM | 38.8 µM | > 100 µM | > 100 µM |  | > 100 µM | 65.2 µM |  |  |  |  |  |  |  |  |  |  |
| CCOC(=O)/C=C/C1=C(c2cccs2)c2ccccc2CC1 | > 100 µM | 34 µM | > 100 µM | > 100 µM |  | 89.4 µM | > 100 µM | 41.3 µM | > 100 µM | > 100 µM | 43.1 µM | 16.5 µM | 30.6 µM |  | 28.8 µM | 31.1 µM | 19.5 µM | 30.2 µM | 35.9 µM | 37.4 µM |
| Cc1cc2c(cc1Cl)SC1=NN(C)C(N(C)C)N1S2(=O)=O (centres undefined) | > 100 µM | > 100 µM | > 100 µM | > 100 µM | > 100 µM | > 100 µM | > 100 µM |  | > 100 µM | > 100 µM | > 100 µM | > 100 µM | > 100 µM | > 100 µM | > 100 µM | > 100 µM |  | > 100 µM | > 100 µM | 55 µM |
| COc1ccc(/C=C2\CCCC(C(NO)c3ccc(OC)cc3)C2=NO)cc1 (centres undefined) | > 100 µM | > 100 µM |  | > 100 µM | 80.5 µM | > 100 µM | > 100 µM | 96.7 µM | > 100 µM | > 100 µM |  |  |  |  |  |  |  |  |  |  |
| COc1ccc(C2=NN(C=O)C(c3cccc(Nc4ccnc5cc(Cl)ccc45)c3)C2)cc1 (centres undefined) |  | 17 µM | > 100 µM | 11.3 µM | 11.9 µM | > 100 µM | 15.7 µM | 7.61 µM | 88.7 µM |  |  | 2.13 µM | 0.511 µM | 2.37 µM | 1.87 µM | 2.73 µM | 1.66 µM | 4.8 µM |  | 3.41 µM |
| CCOC(=O)c1cc(/C=C/C(C)=C/C(=O)OC)oc1C | > 100 µM | > 100 µM | > 100 µM | > 100 µM | > 100 µM | > 100 µM | > 100 µM |  | > 100 µM | > 100 µM |  |  |  |  |  |  |  |  |  |  |
| CCCOc1ccc2nc(NC(=O)OC)[nH]c2c1 | > 100 µM | > 100 µM | > 100 µM |  | > 100 µM | > 100 µM | > 100 µM |  | > 100 µM | > 100 µM | 0.29 µM | 0.13 µM |  | 0.426 µM | 0.34 µM | 0.324 µM |  | 2.43 µM | 1.19 µM | 0.18 µM |
| C[C@]12CCCC(=O)C1(O)C[C@H](C(=O)O)CC2 (some centres undefined) | > 100 µM | > 100 µM | > 100 µM | > 100 µM | > 100 µM | > 100 µM | > 100 µM |  | > 100 µM | > 100 µM |  |  |  |  |  |  |  |  |  |  |
